Assay [1] concerns the target T1, Methionine aminopeptidase (Escherichia coli K-12) (UniProt P0AE18).
T1 sequence (whole entry): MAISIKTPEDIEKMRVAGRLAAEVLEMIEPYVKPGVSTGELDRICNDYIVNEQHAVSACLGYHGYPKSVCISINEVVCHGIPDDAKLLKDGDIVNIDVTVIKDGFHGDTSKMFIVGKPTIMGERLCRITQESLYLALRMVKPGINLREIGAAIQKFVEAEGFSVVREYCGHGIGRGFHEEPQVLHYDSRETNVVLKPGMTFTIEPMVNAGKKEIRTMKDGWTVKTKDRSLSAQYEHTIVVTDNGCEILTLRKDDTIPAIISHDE
Briefly: Inhibition of Co2+ loaded MetAP expressed in Escherichia coli at 10 uM.

For assay [2], the target named is T1, Methionine aminopeptidase (Escherichia coli K-12). Briefly: Inhibition of Mn2+ loaded MetAP expressed in Escherichia coli at upto 10 uM.
Assay [3] concerns the target T2, Methionine aminopeptidase (Escherichia coli K-12, UniProt P0AE18).
T2 sequence (P0AE18 whole entry): T1 sequence (whole entry)
Description: Inhibition of Co2+ loaded MetAP expressed in Escherichia coli.

From ChEMBL document CHEMBL1148582, “Metal-mediated inhibition of Escherichia coli methionine aminopeptidase: structure-activity relationships and development of a novel scoring function for metal-ligand interactions” (J Med Chem, 2006) come the findings set out here.

Active and inactive are the calls of the source. No cut-off for these calls is given here.

The term inhibition denotes the change of the read-out against control, counted positive when it falls. In assay [1], `CCCSc1ccc2[nH]c(NC(=O)OC)nc2c1` had an inhibition of 15.4%. Further, the inhibition entry in assay [2] is “inactive”.

On to `O=[N+]([O-])c1ccc2[nH]c(-c3cscn3)nc2c1`, for which, in assay [2], the inhibition result was “inactive”.

A word on the IC50: it is the point on the concentration scale where inhibition reaches its midpoint. Read a low IC50 as greater potency. In assay [3], `c1cc2nc(-c3cscn3)[nH]c2cn1` displayed a 50% inhibitory concentration (IC50) of 1720 nM.

As to `CC(C)(C)c1ccc2[nH]c(-c3cscn3)nc2c1`, in assay [2], the inhibition entry is “inactive”.

Consider `c1c[nH]c2nc(-c3cscn3)nc-2c1`, for which, in assay [3], half-maximal inhibition (IC50) required 78 nM. The inhibition entry in assay [2] is “inactive”.

`COC(=O)Nc1nc2cc(Sc3ccccc3)ccc2[nH]1` registered an inhibition in assay [1] of 6.07%. Moreover, the inhibition entry in assay [2] is “inactive”.

With `NC(=S)Nc1nc2ccccc2[nH]1`, the 50% inhibitory concentration (IC50) in assay [3] was found to be 8960 nM.

On to `N/C(S)=N/c1nc2ccccc2[nH]1`, for which, in assay [2], the inhibition result is “inactive”.

In the case of `Cc1ccc2[nH]c(-c3cscn3)nc2c1`, the inhibition entry in assay [2] was “inactive”.

Turning to `COC(=O)Nc1nc2ccc(C(=O)c3ccccc3)cc2[nH]1` [MEBENDAZOLE], the IC50 in assay [3] was > 10000 nM.

As for `Clc1ccc2[nH]c(-c3cscn3)nc2c1`, the 50% inhibitory concentration (IC50) in assay [3] amounted to 5150 nM. The inhibition entry in assay [2] is “inactive”.

Compound `c1ccc(-c2nc3ncc[nH]c-3n2)nc1` gave an IC50 in assay [3] of 240 nM. Moreover, in assay [2], the inhibition entry is “inactive”.

For `c1ccc(-c2nc3c[nH]cnc-3n2)nc1`, in assay [3], 376 nM corresponded to half-maximal inhibition (IC50). In addition, the inhibition result in assay [2] is “inactive”.

Take `O=C(c1ccccc1)c1ccc2[nH]c(-c3ccccn3)nc2c1`: the inhibition entry in assay [2] is “inactive”.

With `O=C(c1ccccc1)c1ccc2[nH]c(-c3cscn3)nc2c1`, the inhibition result in assay [2] is “inactive”.

In assay [3], `CC(C)(C)c1ccc2nc(-c3cscn3)[nH]c2c1` displayed a 50% inhibitory concentration (IC50) of 3910 nM.

`O=[N+]([O-])c1ccc2[nH]c(-c3ccccn3)nc2c1` yielded an IC50 in assay [3] of 162 nM. In addition, the inhibition entry in assay [2] was “inactive”.

Regarding `c1coc(-c2nc3ccccc3[nH]2)c1` [FUBERIDAZOLE], in assay [3], the IC50 is > 10000 nM. For the same compound, in assay [1], the inhibition amounted to 10.4%. Besides, the inhibition result in assay [2] is “inactive”.

For the compound `Cc1cc2nc(-c3ccccn3)[nH]c2cc1C`, in assay [3], the concentration for half-maximal inhibition (IC50) was 2430 nM. In assay [2], the inhibition result is “inactive”.

For the compound `c1ccc2[nH]c(-c3cnccn3)nc2c1`, in assay [3], the IC50 was 4590 nM. In addition, the inhibition result in assay [2] was “inactive”.

`O=C(c1ccccc1)c1ccc2nc(-c3ccccn3)[nH]c2c1` gave an IC50 in assay [3] of 403 nM.

Turning to `Fc1ccc2nc(-c3ccccn3)[nH]c2c1`, the inhibition entry in assay [2] was “inactive”.

In the case of `Nc1ccc2[nH]c(-c3ccccn3)nc2c1`, the inhibition result in assay [2] is “inactive”.

For the compound `Cc1ccc2nc(-c3ccccn3)[nH]c2c1`, in assay [2], the inhibition entry is “inactive”.

Consider `Nc1ccc2nc(-c3ccccn3)[nH]c2c1`, for which the IC50 in assay [3] came to 967 nM.

Consider `Fc1ccc2[nH]c(-c3ccccn3)nc2c1`, for which 1510 nM corresponded to half-maximal inhibition in assay [3] (IC50).

On to `O=c1cccc(-c2nc3ccccc3[nH]2)[nH]1`, for which the IC50 in assay [3] is 1340 nM.

Turning to `c1ccc(-c2nc3ccc[nH]c-3n2)nc1`, in assay [3], inhibition was half-maximal at 105 nM (IC50). Also, in assay [2], the inhibition result was “inactive”.

In the case of `c1cc2[nH]c(-c3cscn3)nc2cn1`, the inhibition result in assay [2] is “inactive”.

Take `Oc1cccnc1-c1nc2ccccc2[nH]1`: the half-inhibitory concentration (IC50) in assay [3] is 777 nM. Also, in assay [2], the inhibition entry is “inactive”.

Regarding `Cc1cc2nc(-c3cscn3)[nH]c2cc1C`, the IC50 in assay [3] was > 10000 nM. This compound also showed an inhibition in assay [1] of 47.8%. Also, the inhibition entry in assay [2] is “inactive”.

Turning to `Oc1cccc(-c2nc3ccccc3[nH]2)n1`, the inhibition entry in assay [2] was “inactive”.

In turn, `COC(=O)Nc1nc2cc(C(=O)c3ccccc3)ccc2[nH]1` displayed an inhibition in assay [1] of 29%. Further, the inhibition entry in assay [2] was “inactive”.

Regarding `COC(=O)Nc1nc2ccccc2[nH]1` [CARBENDAZIM], the half-maximal inhibitory concentration (IC50) in assay [3] was > 10000 nM. Also, in assay [1], the inhibition turned out to be 17.6%. In addition, in assay [2], the inhibition result was “inactive”.

For `c1csc(-c2nc3ccccc3[nH]2)c1`, in assay [3], the IC50 was > 10000 nM. The inhibition in assay [1] is 5.36%. The inhibition result in assay [2] is “inactive”.

`c1ccc(-c2nc3cc[nH]cc-3n2)nc1` came in with a half-maximal inhibitory concentration (IC50) in assay [3] of 550 nM. Moreover, the inhibition entry in assay [2] was “inactive”.

In assay [3], `CC(C)(C)c1ccc2nc(-c3ccccn3)[nH]c2c1` came in with an IC50 of 2600 nM.

The compound `Nc1ccc2[nH]c(-c3cscn3)nc2c1` came in with a concentration for half-maximal inhibition (IC50) in assay [3] of 3390 nM. Further, in assay [2], the inhibition result is “inactive”.

As to `CC(C)(C)c1ccc2[nH]c(-c3ccccn3)nc2c1`, the inhibition result in assay [2] is “inactive”.

In turn, `N#Cc1ccc2[nH]c(-c3ccccn3)nc2c1` returned an IC50 in assay [3] of 431 nM. Also, in assay [2], the inhibition result was “inactive”.

As to `Cc1ccc2[nH]c(-c3ccccn3)nc2c1`, in assay [3], the half-inhibitory concentration (IC50) is 2090 nM.

For the compound `Oc1ccccc1-c1nc2ccccc2[nH]1`, the IC50 in assay [3] is > 10000 nM. Besides, the inhibition in assay [1] was determined as 30.4%. For the same compound, in assay [2], the inhibition entry is “inactive”.

As to `c1ccc(-c2nc3ccccc3[nH]2)nc1`, half-maximal inhibition in assay [3] (IC50) required 574 nM. Besides, the inhibition entry in assay [2] is “inactive”.

Regarding `CCCSc1ccc2nc(NC(=O)OC)[nH]c2c1` [ALBENDAZOLE], the IC50 in assay [3] was > 10000 nM.

Consider `c1ccc2[nH]c(Nc3nccs3)nc2c1`, for which it took 540 nM to reach half-maximal inhibition in assay [3] (IC50). For the same compound, the inhibition entry in assay [2] is “inactive”.

In the case of `Clc1ccc2nc(-c3ccccn3)[nH]c2c1`, the midpoint of inhibition in assay [3], the IC50, lay at 1690 nM. Also, the inhibition entry in assay [2] is “inactive”.

Consider `Fc1ccc2[nH]c(-c3cscn3)nc2c1`, for which the inhibition entry in assay [2] is “inactive”.

As for `COC(=O)Nc1nc2ccc(Sc3ccccc3)cc2[nH]1` [FENBENDAZOLE], the IC50 in assay [3] is > 10000 nM.

Regarding `c1ccc2[nH]c(-c3cscn3)nc2c1` [THIABENDAZOLE], the half-inhibitory concentration (IC50) in assay [3] was determined as 472 nM. Further, the inhibition result in assay [2] is “inactive”.

As to `Cn1c(-c2cscn2)nc2ccccc21`, the inhibition entry in assay [2] is “inactive”.

As for `c1cncc(-c2nc3ccccc3[nH]2)c1`, in assay [3], the IC50 is > 10000 nM. Besides, in assay [1], the inhibition came to 4.21%. The inhibition result in assay [2] is “inactive”.

In assay [3], `c1ccc(Cn2c(-c3ccccn3)nc3ccccc32)cc1` gave an IC50 of 992 nM. Also, the inhibition entry in assay [2] is “inactive”.

Take `c1ccc(Cn2c(-c3cscn3)nc3ccccc32)cc1`: the inhibition entry in assay [2] is “inactive”.
